Experimental data: patent US8399462B2, “JNK modulators” (Roche Palo Alto LLC, priority 2006, dated 2013)

| melting point | SMILES |
| --- | --- |
| 170.2 to 174.4 °C | CCc1cccc2c1cnn2-c1ccnc(N[C@H]2CC[C@H](O)CC2)n1 [Compound 99, 4-[4-(4-ethylindazol-1-yl)-pyrimidin-2-yl-amino]-cyclohexanol] |
| 206.7 to 208.3 °C | COC(=O)c1cccc2c1ccn2-c1ccnc(N[C@H]2CC[C@H](O)CC2)n1 [Compound 37, 1-[2-(4-hydroxycyclo-hexylamino)-pyrimidin-4-yl]-1H-indole-4-carboxylic acid methyl ester] |
| 240.2 to 240.8 °C | CS(=O)(=O)Nc1cccc2c1ccn2-c1ccnc(N[C@H]2CC[C@H](O)CC2)n1 [Compound 97, N-{1-[2-(4-hydroxy-cyclohexylamino)-pyrimidin-4-yl]-1H-indol-4-yl}-N-methane-sulfonamide] |
| 244.5 to 248.8 °C | CC(=O)N1CCN(c2cccc3c2ccn3-c2ccnc(N[C@H]3CC[C@H](N(CCO)S(C)(=O)=O)CC3)n2)CC1 [Compound 320, N-(4-{4-[4-(4-acetyl-piperazin-1-yl)-indol-1-yl]-pyrimidin-2-ylamino}-cyclohexyl)-N-(2-hydroxy-ethyl)-methanesulfonamide] |
| 270 to 270.5 °C | CS(=O)(=O)N[C@H]1CC[C@H](Nc2ncc(F)c(-n3ccc4ccccc43)n2)CC1 [Compound 115, N-[4-(5-fluoro-4-indol-1-yl-pyrimidin-2-ylamino)-cyclohexyl]-methanesulfonamide] |
| 259 to 260 °C | N#Cc1cn(-c2ccnc(N[C@H]3CC[C@H](C(=O)N4CCC(O)CC4)CC3)n2)c2ccccc12 [Compound 249, 1-{2-[4-(4-hydroxy-piperidine-1-carbonyl)-cyclohexylamino]-pyrimidin-4-yl}-1H-indol-3-carbonitrile] |
| 134 to 136 °C | N#CCCCOc1cccc2c1ccn2-c1ccnc(N[C@H]2CC[C@H](C(=O)N3CCC(O)CC3)CC2)n1 [Compound 206, 4-(1-{2-[4-(4-hydroxy-piperidin-1-carbonyl)-cyclohexylamino]-pyrimidin-4-yl}-1H-indol-4-yloxy)-butyro-nitrile] |
| 256.9 to 259.9 °C | COc1cccc2c1cnn2-c1ccnc(NC2CCC(NC(C)=O)CC2)n1 (stereo not shown) [Compound 91, N-{4-[4-(4-methoxy-indazol-1-yl]-pyrimidin-2-ylamino}-cyclohexane}-acetamide] |
| 214.5 to 215.5 °C | CC(=O)N[C@H]1CC[C@H](Nc2nccc(-n3ncc4c(OC[C@@H]5COC(C)(C)O5)cccc43)n2)CC1 (stereo in doubt) [Compound 131, N-(4-{4-[4-(2,2-di-methyl[1,3]dioxolan-4-ylmethoxy)-indazol-1-yl]-pyrimidin-2-yl-amino}-cyclohexyl)-acetamide] |
| 191 to 192 °C | O=C([C@H]1CC[C@H](Nc2nccc(-n3ncc4ccccc43)n2)CC1)N1CCOCC1 [Example 6, trans-[4-(4-Indazol-1-yl-pyrimidin-2-ylamino)-cyclohexyl]-morpholin-4-yl-methanone] |
| 248.3 to 249 °C | CS(=O)(=O)N[C@H]1CC[C@H](Nc2nccc(-n3ccc4c(C5(O)CCOCC5)cccc43)n2)CC1 [Compound 194, N-(4-{4-[4-(4-hydroxy-tetrahydropyran-4-yl)-indol-1-yl]-pyrimidin-2-ylamino}-cyclohexyl)-methanesulfonamide] |
| 202.5 to 203.6 °C | O[C@H]1CC[C@H](Nc2nccc(-n3ncc4c(OCc5ccccn5)cccc43)n2)CC1 [Compound 103, 4-{4-[4-(pyridine-2-yl-methoxy)-indazol-1-yl]-pyrimidin-2-ylamino}-cyclohexanol] |
| 132.1 to 134.5 °C | O=S(=O)(Cc1ccccc1)c1cccc2c1ccn2-c1ccnc(N[C@H]2CC[C@H](O)CC2)n1 [Example 14, trans-4-[4-(4-Phenylmethanesulfonylindol-1-yl)-pyrimidin-2-yl-amino]-cyclohexanol] |
| 216.5 to 217.5 °C | CN(c1cccc2c1ccn2-c1ccnc(N[C@H]2CC[C@H](C(C)(C)O)CC2)n1)S(C)(=O)=O [Compound 164, N-(1-{2-[4-(1-hydroxy-1-methyl-ethyl)-cyclo-hexylamino]-pyrimidin-4-yl}-1H-indol-4-yl)-N-methyl-methanesulfonamide] |
| 140.7 to 143.3 °C | O=C([C@H]1CC[C@H](Nc2nccc(-n3ccc4c(OCC(F)(F)F)cccc43)n2)CC1)N1CCC(O)CC1 [Compound 279, (4-hydroxy-piperidin-1-yl)-(4-{4-[4-(2,2,2-trifluoroethoxy)-indol-1-yl]-pyrimidin-2-yl-amino}-cyclohexyl)-methanone] |
| 215 to 219 °C | CS(=O)(=O)CCCOc1cccc2c1ccn2-c1ccnc(N[C@H]2CC[C@H](C(=O)N3CCC(S(C)(=O)=O)CC3)CC2)n1 [Compound 297, (4-methanesulfonyl-piperidin-1-yl)-(4-{4-[4-(3-methanesulfonyl-propoxy)-indol-1-yl]-pyrimidin-2-ylamino}-cyclohexyl)-methanone] |

| melting point | SMILES |
| --- | --- |
| 174 to 175 °C | CS(=O)(=O)CCCOc1cccc2c1cnn2-c1ccnc(N[C@H]2CC[C@H](C(=O)N3CC[C@@H](O)C3)CC2)n1 (stereo in doubt) [Compound 216, (3-hydroxy-pyrrolidin-1-yl)-(4-{4-[4-(3-methane-sulfonyl-propoxy)-indazol-1-yl]-pyrimidin-2-ylamino}-cyclohexyl)-methanone] |
| 188 to 191.7 °C | CC(C)(O)[C@H]1CC[C@H](Nc2nccc(-n3ccc4c(CC#N)cccc43)n2)CC1 [Compound 123, (1-{2-[4-(1-hydroxy-1-methylethyl)-cyclo-hexylamino]-pyrimidin-4-yl}-1H-indol-4-yl)-acetonitrile] |
| 216.5 to 218.5 °C | OCCOc1ccc2cnn(-c3ccnc(N[C@H]4CC[C@H](O)CC4)n3)c2c1 [Compound 89, 4-{4-[6-(2-hydroxy-ethoxy)-indazol-1-yl]-pyrimidin-2-ylamino}-cyclohexanol] |
| 143 to 145 °C | CS(=O)(=O)CCCOc1cccc2c1cnn2-c1ccnc(N[C@H]2CC[C@H](C(=O)N3CCC(O)CC3)CC2)n1 [Compound 184, (4-hydroxy-piperidin-1-yl)-(4-{4-[4-(3-methane-sulfonyl-propoxy)-indazol-1-yl]-pyrimidin-2-ylamino}-cyclohexyl)-methanone] |
| 132 to 133 °C | CNC(=O)OCc1cccc2c1ccn2-c1ccnc(N[C@H]2CC[C@H](O)CC2)n1 [Compound 100, Methyl-carbamic acid 1-[2-(4-hydroxy-cyclo-hexylamino)-pyrimidin-4-yl]-1H-indol-4-ylmethyl ester] |
| 291 to 292 °C | CS(=O)(=O)CCCOc1cccc2c1ccn2-c1ccnc(N[C@H]2CC[C@H](N)CC2)n1.Cl |
| 221.8 to 223 °C | O=[N+]([O-])c1ccc2cnn(-c3ccnc(N[C@H]4CC[C@H](O)CC4)n3)c2c1 [Compound 27] |
| 168.1 to 170.1 °C | CC1(O)CCC(Nc2nccc(-n3ncc4ccccc43)n2)CC1 (stereo not shown) [Example 13, 4-(4-Indazol-1-ylpyrimidin-2-ylamino)-1-methylcyclohexanol] |
| 237 to 238 °C | NS(=O)(=O)CCCOc1cccc2c1cnn2-c1ccnc(N[C@H]2CC[C@H](C(=O)N3CCC(O)CC3)CC2)n1 [Compound 243, 3-(1-{2-[4-(4-hydroxy-piperidine-1-carbonyl)-cyclohexylamino]-pyrimidin-4-yl}-1H-indazol-4yloxy)-propane-1-sulfonic acid amide] |
| 178 to 179 °C | CC(C)(O)c1cccc2c1ccn2-c1ccnc(N[C@H]2CC[C@H](NS(=O)(=O)N3CCCC3)CC2)n1 [Compound 258, Pyrrolidine-1-sulfonic acid (4-{4-[4-(2-hydroxyprop-2-yl)-indol-1-yl]-pyrimidin-2-ylamino}-cyclohexyl)-amide] |
| > 300 °C | CS(=O)(=O)N[C@H]1CC[C@H](Nc2nccc(-n3cc(C#N)c4ccccc43)n2)CC1 [Compound 247, N-{4-[4-(3-cyano-indol-1-yl)-pyrimidin-2-ylamino]-cyclohexyl}-methanesulfonamide] |
| 220 to 222.3 °C | O=C(COc1cccc2c1cnn2-c1ccnc(N[C@H]2CC[C@H](O)CC2)n1)N[C@H]1CC[C@H](O)CC1 [Compound 95, N-(4-hydroxy-cyclo-hexyl)-2-{1-[2-(4-hydroxy-cyclohexyl-amino)-pyrimidin-4-yl]-1H-indazol-4-yloxy}-acetamide] |
| 208 to 210 °C | CC(C)(O)c1cccc2c1ccn2-c1ccnc(N[C@H]2CC[C@H](C(=O)NCCS(C)(=O)=O)CC2)n1 [Compound 107, 4-{4-[4-(1-hydroxy-1-methylethyl)-indol-1-yl]-pyrimidin-2-yl-amino}-cyclohexane-carboxylic acid (2-methanesulfonyl-ethyl)-amide] |
| > 300 °C | O[C@H]1CC[C@H](Nc2nccc(-n3ncc4c(OCC5CC5)cccc43)n2)CC1 [Compound 94, 4-[4-(4-cyclopropyl-methoxy-indazol-1-yl)-pyrimidin-2-ylamino]-cyclohexanol] |
| 166 to 167 °C | CCOC(=O)[C@H]1CC[C@H](Nc2nccc(-n3ncc4c(OCCCS(N)(=O)=O)cccc43)n2)CC1 [Compound 260, 4-{4-[4-(3-sulfamoyl-propoxy)-indazol-1-yl]-pyrimidin-2-ylamino}-cyclohexanecarboxylic acid ethyl ester] |
| 226.8 to 227.3 °C | COC(=O)N[C@H]1CC[C@H](Nc2nccc(-n3ncc4c(OCCCS(C)(=O)=O)cccc43)n2)CC1 [Compound 170, (4-{4-[4-(3-methane-sulfonyl-propoxy)-indazol-1-yl]-pyrimidin-2-ylamino}-cyclohexyl)-carbamic acid methyl ester] |

| SMILES | melting point |
| --- | --- |
| CS(=O)(=O)N[C@H]1CC[C@H](Nc2nccc(-n3ccc4c(OCC(O)CC(F)(F)F)cccc43)n2)CC1 (stereo partly shown) [Compound 314, N-(4-{4-[4-(4,4,4-trifluoro-2-hydroxy-butoxy)-indol-1-yl]-pyrimidin-2-ylamino}-cyclohexyl)-methanesulfonamide] | 220.7 to 221.5 °C |
| CN(C)C1CCN(C(=O)[C@H]2CC[C@H](Nc3nccc(-n4ccc5c(OCCCC(F)(F)F)cccc54)n3)CC2)CC1 [Compound 286, (4-dimethylamino-piperidin-1-yl)-(4-{4-[4-(4,4,4-trifluorobutoxy)-indol-1-yl]-pyrimidin-2-ylamino}-cyclohexyl)-methanone] | 179 to 180 °C |
